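Method: 48-hour compound exposure of cells in 96-well plates, five concentrations, linear interpolation of endpoints. At the GI50, growth is halved.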 Calls of active or inactive are those of the source. Rule as the data show it: active = GI50 up to about 1.1 µM and inactive = higher.
Key:
Test in all cases: inhibition of tumour cell growth, NCI panel, 48 h
ACHN = system: ACHN
BT-549 = system: BT-549
EKVX = system: EKVX
HL-60 = system: HL-60
IGROV-1 = system: IGROV-1
KM12 = system: KM12
MDA-MB-231 = system: MDA-MB-231
MDA-N = system: MDA-N
Malme-3M = system: Malme-3M
NCI-H522 = system: NCI-H522
SF-539 = system: SF-539
SK-MEL-5 = system: SK-MEL-5
SN12C = system: SN12C
SR = system: SR
SW-620 = system: SW-620
TK-10 = system: TK-10
U-251 = system: U-251
UACC-62 = system: UACC-62
RPMI-8226 = system: RPMI-8226

Measured: GI50

O=C1Nc2ccccc2C1=Nc1ccc(S(=O)(=O)Nc2nccs2)cc1
inactive: ACHN > 100 µM | BT-549 > 100 µM | EKVX > 100 µM | HL-60 > 100 µM | IGROV-1 > 100 µM | KM12 > 100 µM | MDA-MB-231 > 100 µM | MDA-N > 100 µM | Malme-3M > 100 µM | NCI-H522 > 100 µM | SF-539 48.3 µM | SK-MEL-5 > 100 µM | SN12C > 100 µM | SR 51.8 µM | SW-620 > 100 µM | TK-10 > 100 µM | U-251 > 100 µM | UACC-62 > 100 µM

O=[N+]([O-])c1cc(-c2ccc([As](=O)(O)O)cc2)ccc1[As](=O)(O)O
inactive: ACHN > 100 µM | BT-549 > 100 µM | EKVX > 100 µM | HL-60 > 100 µM | IGROV-1 > 100 µM | KM12 > 100 µM | MDA-MB-231 > 100 µM | MDA-N > 100 µM | Malme-3M > 100 µM | NCI-H522 > 100 µM | RPMI-8226 > 100 µM | SK-MEL-5 > 100 µM | SN12C > 100 µM | SR > 100 µM | SW-620 > 100 µM | TK-10 > 100 µM | U-251 > 100 µM | UACC-62 > 100 µM

O=C(O)c1ccc2c(O)c(O)ccc2c1
inactive: ACHN 15.8 µM | BT-549 21.6 µM | EKVX 20.8 µM | IGROV-1 19.7 µM | KM12 16.4 µM | MDA-MB-231 29 µM | MDA-N 18.5 µM | Malme-3M 38.9 µM | NCI-H522 16.9 µM | RPMI-8226 15.4 µM | SF-539 4.81 µM | SK-MEL-5 17.3 µM | SN12C 8.61 µM | SR 3.17 µM | SW-620 26.5 µM | TK-10 13.8 µM | U-251 19.9 µM | UACC-62 > 10 µM

COc1cc2nc(-c3ccc4ccccc4c3)nc(O)c2cc1OC
inactive: ACHN 48.8 µM | BT-549 > 100 µM | EKVX > 100 µM | HL-60 > 100 µM | IGROV-1 > 100 µM | KM12 > 100 µM | MDA-MB-231 > 100 µM | MDA-N > 100 µM | Malme-3M 49.2 µM | NCI-H522 56.1 µM | RPMI-8226 > 100 µM | SK-MEL-5 > 100 µM | SN12C > 100 µM | SR > 100 µM | UACC-62 99.3 µM

CC(=O)Nc1nc(Cl)cc(NCC2(CO)CCC2)n1
inactive: ACHN > 100 µM | BT-549 > 100 µM | EKVX > 100 µM | HL-60 > 100 µM | IGROV-1 > 100 µM | KM12 > 100 µM | MDA-MB-231 > 100 µM | MDA-N > 100 µM | Malme-3M > 100 µM | NCI-H522 > 100 µM | RPMI-8226 > 100 µM | SK-MEL-5 > 100 µM | SN12C > 100 µM | SR > 100 µM | SW-620 > 100 µM | U-251 > 100 µM | UACC-62 > 100 µM

O=C1Nc2c(Cl)cc(Cl)cc2/C1=N/N=C/c1ccccc1O
inactive: ACHN 29.2 µM | BT-549 15.1 µM | EKVX 11.5 µM | HL-60 21.1 µM | IGROV-1 26.1 µM | KM12 26.4 µM | MDA-MB-231 19.8 µM | MDA-N 17.4 µM | Malme-3M 27.9 µM | SF-539 20.6 µM | SK-MEL-5 20.4 µM | SN12C 18.3 µM | SR 16.3 µM | SW-620 22 µM | TK-10 36.8 µM | U-251 17.2 µM | UACC-62 17.2 µM

COC(=O)/C=C/COCC1C2CCC(=O)C21 (configuration not stated)
inactive: ACHN > 100 µM | BT-549 > 100 µM | EKVX > 100 µM | IGROV-1 > 100 µM | KM12 > 100 µM | MDA-MB-231 > 100 µM | MDA-N > 100 µM | Malme-3M > 100 µM | NCI-H522 > 100 µM | RPMI-8226 > 100 µM | SF-539 > 100 µM | SK-MEL-5 > 100 µM | SN12C > 100 µM | SR > 100 µM | SW-620 > 100 µM | TK-10 > 100 µM | U-251 > 100 µM | UACC-62 > 100 µM

C(=C\c1ccccc1)/Cn1nc(-c2ccccc2)nc1-c1cnccn1
inactive: BT-549 > 100 µM | EKVX > 100 µM | HL-60 > 100 µM | IGROV-1 > 100 µM | KM12 > 10 µM | MDA-MB-231 > 100 µM | MDA-N > 100 µM | NCI-H522 > 100 µM | RPMI-8226 > 100 µM | SF-539 > 100 µM | SK-MEL-5 29.5 µM | SN12C > 100 µM | SR > 100 µM | SW-620 > 100 µM | TK-10 > 100 µM | U-251 > 100 µM | UACC-62 > 100 µM

CC(=O)NC(C)(C)C1CCC(C)=C(c2ccccc2)C1 (configuration not stated)
inactive: BT-549 > 100 µM | EKVX > 100 µM | HL-60 31.1 µM | IGROV-1 > 100 µM | KM12 > 100 µM | MDA-MB-231 55.8 µM | MDA-N > 100 µM | NCI-H522 88.7 µM | SF-539 > 100 µM | SK-MEL-5 > 100 µM | SN12C > 100 µM | SR > 100 µM | SW-620 > 100 µM | TK-10 > 100 µM | U-251 80 µM | UACC-62 > 100 µM

CC(=O)N1C(=O)/C(=C\C(=O)c2ccc([N+](=O)[O-])cc2)c2ccccc21
inactive: ACHN 15.3 µM | BT-549 20.9 µM | EKVX 19.6 µM | IGROV-1 21.4 µM | KM12 19.6 µM | MDA-MB-231 35.3 µM | MDA-N 18.8 µM | Malme-3M 20.7 µM | NCI-H522 15.7 µM | SF-539 14.4 µM | SK-MEL-5 35 µM | SN12C 16.8 µM | SR 3.61 µM | TK-10 13.1 µM | U-251 21.1 µM | UACC-62 18.4 µM

CCOC(=O)CC(=O)Nc1cccc2sc3ncccc3c(=O)c12
inactive: ACHN 33.3 µM | BT-549 43.4 µM | EKVX 65.8 µM | IGROV-1 > 10 µM | KM12 77.4 µM | MDA-MB-231 60.8 µM | MDA-N 76.7 µM | Malme-3M 54.6 µM | NCI-H522 45.4 µM | RPMI-8226 35.6 µM | SF-539 41.7 µM | SK-MEL-5 5.37 µM | SN12C 51.8 µM | SR 33.3 µM | SW-620 > 100 µM | TK-10 34.4 µM | U-251 32.6 µM | UACC-62 31.7 µM

Cc1ccc(/N=N/c2c(O)ccc3ccccc23)cc1
inactive: ACHN > 100 µM | BT-549 > 100 µM | EKVX > 100 µM | IGROV-1 > 100 µM | KM12 98.6 µM | MDA-MB-231 > 100 µM | MDA-N > 100 µM | Malme-3M > 100 µM | NCI-H522 > 100 µM | RPMI-8226 99.3 µM | SK-MEL-5 > 100 µM | SN12C > 100 µM | SR 11.7 µM | SW-620 63.4 µM | TK-10 > 100 µM | U-251 53.6 µM | UACC-62 > 100 µM

Cc1cn(CC2=NCC(C)N2)c(=O)[nH]c1=O (configuration not stated)
inactive: ACHN > 100 µM | BT-549 > 100 µM | EKVX > 100 µM | IGROV-1 > 100 µM | MDA-MB-231 > 100 µM | MDA-N > 100 µM | Malme-3M > 100 µM | NCI-H522 > 100 µM | RPMI-8226 > 100 µM | SK-MEL-5 > 100 µM | SN12C > 100 µM | SR > 100 µM | SW-620 > 100 µM | TK-10 > 100 µM | U-251 > 100 µM | UACC-62 > 100 µM

CC12c3c4cccc3Oc3cc(N)cc(c31)Oc1cc(N)cc(c12)O4
inactive: ACHN 11.1 µM | BT-549 3.84 µM | EKVX 3.38 µM | IGROV-1 3.44 µM | KM12 4.26 µM | MDA-MB-231 3.5 µM | MDA-N 1.31 µM | Malme-3M 2.99 µM | NCI-H522 2.24 µM | RPMI-8226 5.93 µM | SF-539 2.96 µM | SK-MEL-5 3.3 µM | SN12C 8.28 µM | SR 6.22 µM | SW-620 3.48 µM | TK-10 10 µM | U-251 6.93 µM | UACC-62 4.59 µM

O=C(O)c1ccc(Nc2nc3cc(C(F)(F)F)ccc3nc2C(=O)O)cc1
inactive: ACHN > 100 µM | BT-549 > 100 µM | EKVX > 100 µM | HL-60 > 100 µM | IGROV-1 > 100 µM | KM12 > 100 µM | MDA-MB-231 > 100 µM | MDA-N > 100 µM | Malme-3M > 100 µM | NCI-H522 > 100 µM | SK-MEL-5 > 100 µM | SN12C > 100 µM | SR > 100 µM | SW-620 > 100 µM | U-251 > 100 µM

CN(C)c1n2c3cc([N+](=O)[O-])ccc3[n+]3c(N(C)C)n4ccccc4c3c2c2cccc[n+]12.[O-][Cl+3]([O-])([O-])[O-].[O-][Cl+3]([O-])([O-])[O-]
inactive: ACHN > 100 µM | BT-549 > 100 µM | EKVX > 100 µM | HL-60 > 100 µM | IGROV-1 > 100 µM | KM12 > 100 µM | MDA-MB-231 > 100 µM | MDA-N > 100 µM | Malme-3M > 100 µM | NCI-H522 34.9 µM | RPMI-8226 > 100 µM | SK-MEL-5 > 100 µM | SN12C 38.9 µM | SR > 100 µM | SW-620 > 100 µM | TK-10 > 100 µM | U-251 51.1 µM | UACC-62 > 100 µM
